One test deals with T1, BuChE (Equus caballus, UniProt P81908).
T1 construct: BuChE (from equine serum); purchased Sigma Chemical Company (St. Louis, MO, USA); host or cells: equine serum
Nature of the test: Kinetic study of BuChE inhibition (Lineweaver–Burk). It is filed as biochemical. As for the experimental part:
The specific steps are similar to those described in Section 4.3 for the enzyme inhibition assay. In brief, 100 μL of different concentrations of 4h (0, 0.075, 0.15, and 0.3 μM)/4h (0, 3, 6, and 12 μM) and 100 μL of different concentrations of AChE/BuChE (1, 0.5, 0.25, 0.125, and 0.0625 U/mL) were added into 48-well plates and then co-incubated at 37 °C for 30 min. After the end of incubation, 100 μL of ATCI/BTCI (0.35 mM), 100 μL of PB solution, and 100 μL DTNB (0.35 mM) were added, and then changes in absorbance were measured at different times at 412 nm by multifunctional microplate reader, and the catalytic reaction rate of AChE/BuChE was determined. All concentrations are final. With the enzyme reaction rate V as the ordinate and AChE/BuChE concentration as the abscissa, the curve was drawn to determine the reversibility of the compound to AChE/BuChE.
In order to determination of inhibition types and the constant of AChE/BuChE, the concentration of AChE/BuChE (0.5 U/mL) in the reaction system was fixed. Five different substrate concentrations and four different concentrations of test compound 4h were used to measure the absorbance changes at different times at 412 nm. The reciprocal of the enzymatic reaction rate (1/V) was taken as the ordinate, and the reciprocal of the substrate ATCI/BTCI concentration (1/S) was taken as the abscissa.
[…]. […]

In a further test the test system is TNF-α in BV2 cells. Kind of test: TNF-α secretion in LPS-stimulated BV2 cells (ELISA). It is filed as cell-based. Conditions: Mus musculus, BV-2, 24 h, read-out: TNF-α inhibition IC50. How it is done:
(§1) The cytotoxicity of compounds on BV2 cells were evaluated by MTT assay and similar to those described in Section 2.5. The NO concentrations in medium were determined using Griess Reagent assay (Beyotime) in accordance with a previously reported method. Nitrite is reduced to nitrogen oxide using Griess Reagent I. Nitrogen oxide then reacts with Griess Reagent II forming a stable product that can be detected by its absorbance at […]. The two-step assay is simple, fast, and can detect nitrite levels as low as 1 nmol/well. BV2 cells were seeded into a 48-well plate at a density of 6.0 × 10^4 cells per well. After the cells were incubated overnight, the old medium was discarded. Then, the cells were pretreated with various concentrations (10, 5, 1, 0.5, and 0.1 μM) of compounds for 1 h and then co-incubated with LPS (1 μg/mL, 30 μL/well) for 24 h. After 24 h, the cell supernatant (50 μL/well) was placed into a new 96-well plate for experiment. […] The absorbance at […] was measured by a microplate reader.
(§2) The contents of TNF-α and IL-β in the cell supernatant were measured via ELISA (Jyimei, Wuhan, China) following the manufacturer’s instructions.
In general terms: An ELISA detects its analyte on a solid surface through an enzyme-linked reagent.

The next test is described as follows: DPPH radical scavenging. It is filed as physicochemical. Conditions: vs no-compound group. As for the experimental part: DPPH is a commercially available stable organic nitrogen radical with maximum UV absorption at 515 nm. After reduction, the color of the solution fades (absorbance decreases). Therefore, this method was used to evaluate the antioxidant capacity of the compounds. In short, 50 μL of DPPH (140 μM) and 50 μL of different concentrations (10, 100, and 1000 μM) of compound 4h were added together in a 96-well plate and then incubated in the dark at 37 °C for 2 h. The absorbance was measured at 515 nm through the multifunctional microplate reader. The scavenging rate (SR) of DPPH radicals was calculated by the following formula: SR = (1 − Ac/A0) × 100%, where “Ac” is the absorbance of DPPH and the compound solution incubating, and “A0” is the absorbance of the DPPH radical-ethanol solution alone. The experimental results are expressed as the average of three tests.
(In general: The DPPH test is a chemical assay of radical scavenging.)

The test system of a further test is iNOS. Nature of the test: iNOS expression in LPS-stimulated BV2 cells (Western blot). It is filed as cell-based. To be noted: 1, 2, 4 μM. How it is done:
BV2 cells were seeded into a 6-well plate at a density of 3.0 × 10^5 cells per well. After incubation overnight, the old medium was discarded. Then, the cells were pretreated with various concentrations (1, 2, and 4 μM) of 4h for 1 h and then co-incubated with LPS (1 μg/mL) for 24 h. After incubation was completed, the cells were washed twice with PBS, and 300 μL of cell lysis buffer (RIRA lysis buffer, phosphatase inhibitor, protease inhibitor, and PMSF) was added to each well. The cells were then incubated on ice for 30 min and centrifuged at 12,000 rpm at 4 °C for 30 min to collect the supernatant. The protein content in the supernatant was detected using the BCA protein detection kit (Beyotime, Shanghai, China). Total proteins were separated by 10% SDS-PAGE and then transferred from the gel to a PVDF membrane (Sigma-Aldrich, Shanghai, China). The membranes were blocked in TBST solution containing 5% skimmed milk for 2 h. Next, the membranes were washed three times (TBST) and incubated with primary antibody dilution (Cell Signaling Technologies, Boston, MA, USA) overnight at 4 °C. Then, they were washed another three times (TBST), incubated with the secondary antibody at room temperature for 90 min, and then washed three times with TBST. The blots were visualized by a chemiluminescence imager (Tanon 5200, Shanghai, China).
For orientation: In western blotting, separated proteins are transferred to a membrane and probed.

The target of another test is T2, AChE (from electric eel) (Electrophorus electricus, UniProt O42275).
T2 construct: AChE (from electric eel); purchased Sigma Chemical Company (St. Louis, MO, USA)
T2 sequence (O42275 24-633): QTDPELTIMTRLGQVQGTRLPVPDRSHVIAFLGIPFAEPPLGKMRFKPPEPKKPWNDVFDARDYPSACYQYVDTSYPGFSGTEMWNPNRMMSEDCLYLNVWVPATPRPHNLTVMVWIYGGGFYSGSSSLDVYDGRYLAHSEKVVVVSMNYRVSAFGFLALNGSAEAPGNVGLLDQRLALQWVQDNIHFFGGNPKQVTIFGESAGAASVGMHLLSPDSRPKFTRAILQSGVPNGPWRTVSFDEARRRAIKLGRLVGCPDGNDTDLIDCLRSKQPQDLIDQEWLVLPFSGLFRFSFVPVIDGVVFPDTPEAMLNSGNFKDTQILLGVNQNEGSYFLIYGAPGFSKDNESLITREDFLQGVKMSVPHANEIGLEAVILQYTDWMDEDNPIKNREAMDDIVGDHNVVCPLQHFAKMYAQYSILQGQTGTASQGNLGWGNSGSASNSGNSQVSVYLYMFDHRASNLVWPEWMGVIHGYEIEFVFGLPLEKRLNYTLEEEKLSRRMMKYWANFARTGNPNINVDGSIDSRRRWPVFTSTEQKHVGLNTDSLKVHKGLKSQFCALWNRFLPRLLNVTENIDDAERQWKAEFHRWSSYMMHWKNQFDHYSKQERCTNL
Nature of the test: biochemical.

Test [1] concerns the target T3, BuChE (from equine serum) (Equus caballus, UniProt P81908).
T3 construct: BuChE (from equine serum); purchased Sigma Chemical Company (St. Louis, MO, USA); host or cells: equine serum
Kind of test: biochemical. To be noted: mean ± SD of three experiments, read-out: BuChE Inhibition (IC50).

The subject of another test is IL-1β in BV2 cells. Kind of test: IL-1β secretion in LPS-stimulated BV2 cells (ELISA). It is filed as cell-based. To be noted: Mus musculus, BV-2, 24 h, read-out: IL-1β inhibition IC50. As for the experimental part:
as §1, §2

“And” between values parts separate entries of the source, which are not always exact repeats. Identical values can stand only once.

T1 sequence (P81908 whole entry): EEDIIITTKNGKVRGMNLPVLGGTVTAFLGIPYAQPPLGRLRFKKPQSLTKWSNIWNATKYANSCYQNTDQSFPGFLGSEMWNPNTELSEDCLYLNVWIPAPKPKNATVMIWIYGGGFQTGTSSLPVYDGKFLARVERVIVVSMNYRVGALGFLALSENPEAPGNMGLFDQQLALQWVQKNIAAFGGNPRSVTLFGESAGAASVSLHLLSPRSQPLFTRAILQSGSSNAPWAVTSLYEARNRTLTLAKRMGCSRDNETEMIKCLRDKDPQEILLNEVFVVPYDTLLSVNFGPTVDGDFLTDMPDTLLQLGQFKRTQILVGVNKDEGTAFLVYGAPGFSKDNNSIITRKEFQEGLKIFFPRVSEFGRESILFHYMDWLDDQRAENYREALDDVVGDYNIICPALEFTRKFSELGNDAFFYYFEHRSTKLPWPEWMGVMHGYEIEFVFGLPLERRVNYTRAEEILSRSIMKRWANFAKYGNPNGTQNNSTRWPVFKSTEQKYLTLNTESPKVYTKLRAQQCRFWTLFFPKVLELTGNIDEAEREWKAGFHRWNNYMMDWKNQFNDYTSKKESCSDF
T3 sequence (P81908 whole entry): as above

One may read the Ki as the dissociation constant of the complex between target and ligand, obtained from inhibition or displacement. Broadly, the IC50 is the concentration needed to halve the response being measured. As to `O=C1c2cc(NS(=O)(=O)c3ccccc3F)ccc2-n2c1nc1ccccc1c2=O` [4h], the BuChE inhibition type result at BuChE (Lineweaver–Burk double-reciprocal plot) is recorded as “mixed-type inhibition”. On BuChE (Lineweaver–Burk secondary plot), this compound yielded a Ki of 5330 nM. The IC50 worked out at 1310 ± 280 nM in the test with TNF-α in BV2 cells; 130 ± 40 nM on AChE (from electric eel) (AChE from electric eel, mean ± SD of three experiments, read-out: AChE Inhibition (IC50)); 6110 ± 150 nM in test [1]; 1780 ± 210 nM in the test with IL-1β in BV2 cells. Further, the “Concentration of DPPH (%)” value was 84.76 ± 4.21% and 84.76% in the test “DPPH radical scavenging” (10 μM compound); 74.6 ± 2.51% in “DPPH radical scavenging” (100 μM compound); 36.51 ± 2.78% and 36.51% in the test “DPPH radical scavenging” (1000 μM compound). For the same compound, the iNOS expression entry in the test with iNOS was “significantly decreased the expression of COX-2 and iNOS”. For the same compound, the “Selective Index, IC50 (BChE)/IC50 (AChE)” value on AChE (from electric eel) (AChE selectivity index) turned out to be 47.
